Reference: patent US20040224958A1, “Pyridopyrimidinone derivatives for treatment of neurodegenerative disease” (priority 2000, published 2004)
pIC50: −log10 of the molar value. Read-outs that look alike come from different tables or passages of the source.

Experiments:
cdc2/cyclinB = cdc2/cyclinB (Homo sapiens, UniProt P06493); test: Cyclin-Dependent Kinase Assay cdc2/cyclinB
cdk2/cyclinA = cdk2/cyclinA (Homo sapiens, UniProt P24941); test: Cyclin-Dependent Kinase Assay cdk2/cyclinA
Cdk5/p25 = Cdk5/p25 (Homo sapiens, UniProt Q00535); test: Cyclin-Dependent Kinase 5 High Throughput Screening (cdk5-HTS) Assay; type: biochemical; details: high throughput screen
Procedure, shortened: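 IC50 determined from 33P incorporation into GST-RbCOOH captured on glutathione plates and read by scintillation counting. Reaction: 1.0 μg/mL Cdk5/p25, 20 μM [γ33P]ATP, pH 7.4 Tris buffer with MgCl2 and DTT, 30 min at room temperature, stopped with EDTA.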

cdk4/D = cdk4/D (Homo sapiens, UniProt P11802); test: Cyclin-Dependent Kinase 4 (cdk4) Assay; type: biochemical; details: read-out: cdk4/D IC50
cdk2/cyclinE = cdk2/cyclinE (Homo sapiens, UniProt P24941); test: Cyclin-Dependent Kinase Assay cdk2/cyclinE

Chain of cdk4/D (P11802 whole entry): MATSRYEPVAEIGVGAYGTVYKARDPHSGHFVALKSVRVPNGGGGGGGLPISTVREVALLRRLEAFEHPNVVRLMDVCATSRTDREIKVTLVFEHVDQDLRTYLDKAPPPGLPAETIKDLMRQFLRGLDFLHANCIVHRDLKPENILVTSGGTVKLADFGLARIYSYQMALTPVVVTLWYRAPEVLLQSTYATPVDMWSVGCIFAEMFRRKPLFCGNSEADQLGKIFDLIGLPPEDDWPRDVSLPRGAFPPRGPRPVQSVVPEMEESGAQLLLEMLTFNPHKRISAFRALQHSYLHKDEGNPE
Chain of cdk4/D (P24385 whole entry, further chain): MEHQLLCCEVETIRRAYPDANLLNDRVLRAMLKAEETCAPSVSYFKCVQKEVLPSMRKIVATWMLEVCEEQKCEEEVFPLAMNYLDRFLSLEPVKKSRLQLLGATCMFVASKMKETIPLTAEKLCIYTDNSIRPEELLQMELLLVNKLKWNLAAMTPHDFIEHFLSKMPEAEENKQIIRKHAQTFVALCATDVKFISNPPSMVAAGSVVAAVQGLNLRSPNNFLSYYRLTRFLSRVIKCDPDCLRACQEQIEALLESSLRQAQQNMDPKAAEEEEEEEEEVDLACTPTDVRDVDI
Chain of cdc2/cyclinB (P06493 whole entry): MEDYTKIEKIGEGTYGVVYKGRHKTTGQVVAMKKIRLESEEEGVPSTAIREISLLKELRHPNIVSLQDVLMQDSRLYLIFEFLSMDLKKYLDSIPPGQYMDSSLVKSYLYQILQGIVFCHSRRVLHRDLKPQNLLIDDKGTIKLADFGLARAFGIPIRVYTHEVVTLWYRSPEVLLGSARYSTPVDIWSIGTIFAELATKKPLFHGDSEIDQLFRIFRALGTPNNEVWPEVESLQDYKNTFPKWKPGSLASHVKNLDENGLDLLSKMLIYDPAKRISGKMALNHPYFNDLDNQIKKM
Chain of cdc2/cyclinB (P14635 whole entry, further chain): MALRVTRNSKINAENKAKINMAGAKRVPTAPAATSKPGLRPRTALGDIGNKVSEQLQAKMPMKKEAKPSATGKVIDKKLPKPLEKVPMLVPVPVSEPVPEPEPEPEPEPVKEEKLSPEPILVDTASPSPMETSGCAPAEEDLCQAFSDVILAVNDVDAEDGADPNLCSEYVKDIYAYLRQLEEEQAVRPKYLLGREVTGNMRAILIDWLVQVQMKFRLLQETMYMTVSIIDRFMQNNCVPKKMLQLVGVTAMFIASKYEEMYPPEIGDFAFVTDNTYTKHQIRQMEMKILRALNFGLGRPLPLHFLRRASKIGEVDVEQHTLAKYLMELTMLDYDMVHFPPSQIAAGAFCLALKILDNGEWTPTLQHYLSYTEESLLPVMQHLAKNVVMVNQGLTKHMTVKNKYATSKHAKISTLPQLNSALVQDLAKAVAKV

Row | Compound | pIC50 (cdc2/cyclinB) | pIC50 (cdk2/cyclinA; cdk2/A IC50) | pIC50 (Cdk5/p25) | pIC50 (cdk4/D) | pIC50 (cdk2/cyclinE; cdk2/E IC50) | pIC50 (cdk2/cyclinA) | pIC50 (cdk2/cyclinE)
1 | NS(=O)(=O)c1cccc(Nc2ncc3ccc(=O)n(C4CCCC4)c3n2)c1 [Example 547, 3-(8-Cyclopentyl-7-oxo-7,8-dihydro-pyrido[2,3-d]pyrimidin-2-ylamino)-benzenesulfonamide] | 6.52 | 6.23 | 7.18 | 7.27 | 6.96 |  | 
2 | CCCCn1c(=O)ccc2cnc(Nc3ccc(Br)c(C(F)(F)F)c3)nc21 [Example 374, 2-(4-Bromo-3-trifluoromethyl-phenylamino)-8-butyl-8H-pyrido[2,3-d]pyrimidin-7-one] | 6.02 | 5.54 | 6.42 | 5.53 | 6.18 |  | 
3 | CCC(C)n1c(=O)ccc2cnc(Nc3ccc(C)c(C)c3)nc21 (centres unmarked) [Example 476, 8-sec-Butyl-2-(3,4-dimethyl-phenylamino)-8Hi-pyrido[2,3-d]pyrimidin-7-one] | 6.77 | 6.80 | 7.51 | 6.64 | 6.70 |  | 
4 | CCC(CC)n1c(=O)ccc2cnc(Nc3ccc(C)c(F)c3)nc21 [Example 482, 8-(1-Ethyl-propyl)-2-(3-fluoro-4-methyl-phenylamino)-8H-pyrido[2,3-d]pyrimidin-7-one] | 6.67 |  | 7.20 | 6.78 |  | 6.22 | 6.82
5 | CCC(C)n1c(=O)ccc2cnc(Nc3ccc(F)c(Cl)c3)nc21 (centres unmarked) [Example 460, 8-sec-Butyl-2-(3-chloro-4-fluoro-phenylamino)-8H-pyrido[2,3-d]pyrimidin-7-one] | 6.85 | 6.59 | 7.44 | 6.80 | 7.14 |  | 
6 | CCC(C)n1c(=O)ccc2cnc(Nc3ccc4c(c3)CCCC4=O)nc21 (centres unmarked) [Example 470, 8-sec-Butyl-2-(5-oxo-5,6,7,8-tetrahydro-naphthalen-2-ylamino)-8H-pyrido[2,3-d]pyrimidin-7-one] | 7.17 | 6.82 | 8.21 | 6.96 | 7.30 |  | 
7 | CCC(C)n1c(=O)ccc2cnc(Nc3ccc(F)c([N+](=O)[O-])c3)nc21 (centres unmarked) [Example 475, 8-sec-Butyl-2-(4-fluoro-3-nitro-phenylamino)-8H-pyrido[2,3-d]pyrimidin-7-one] | 5.96 | 5.82 | 6.32 | 5.85 | 6.09 |  | 
8 | CCC(CC)n1c(=O)ccc2cnc(Nc3cc(F)cc(F)c3)nc21 [Example 510, 2-(3,5-Difluoro-phenylamino)-8-(1-ethyl-propyl)-8H-pyrido[2,3-d]pyrimidin-7-one] | 6.74 | 6.51 | 6.92 | 6.57 | 6.68 |  | 
9 | CC(C)n1c(=O)ccc2cnc(Nc3ccc(F)c(C(F)(F)F)c3)nc21 [Example 407, 2-(4-Fluoro-3-trifluoromethyl-phenylamino)-8-isopropyl-8H-pyrido[2,3-d]pyrimidin-7-one] | 6.49 | 6.34 | 7.25 | 6.01 | 6.17 |  | 

Further molecules by rising pIC50 (cdc2/cyclinB), results first:

Row | pIC50 (cdc2/cyclinB) | pIC50 (cdk2/cyclinA; cdk2/A IC50) | pIC50 (Cdk5/p25) | pIC50 (cdk4/D) | pIC50 (cdk2/cyclinE; cdk2/E IC50) | Compound | pIC50 (cdk2/cyclinA) | pIC50 (cdk2/cyclinE)
10 | 6.14 | 5.78 | 6.77 | 5.88 | 6.45 | CCC(CC)n1c(=O)ccc2cnc(Nc3ccc(F)cc3F)nc21 [Example 483, 2-(2,4-Difluoro-phenylamino)-8-(1-ethyl-propyl)-8H-pyrido[2,3-d]pyrimidin-7-one] |  | 
11 | 6.21 | 6.19 | 6.55 | 5.72 | 6.52 | CCCCn1c(=O)ccc2cnc(Nc3cc(F)cc(F)c3)nc21 [Example 404, 8-Butyl-2-(3,5-difluoro-phenylamino)-8H-pyrido[2,3-d]pyrimidin-7-one] |  | 
12 | 6.44 | 6.29 | 6.54 | 6.41 | 6.71 | CC(C)(C)OC(=O)Nc1ccc(Nc2ncc3ccc(=O)n(CC4CC4)c3n2)cc1 [Example 565, [4-(8-Cyclopropylmethyl-7-oxo-7,8-dihydro-pyrido[2,3-d]pyrimidin-2-ylamino)-phenyl]-carbamic acid tert-butyl ester] |  | 
13 | 6.47 | 6.74 | 6.35 | 6.68 | 6.49 | CC(=O)Nc1cc(Nc2ncc3ccc(=O)n(CC4CC4)c3n2)ccc1C [Example 585] |  | 
14 | 6.48 | 6.48 | 6.64 | 6.27 | 6.55 | O=c1ccc2cnc(Nc3cc(F)cc(F)c3)nc2n1CC1CC1 [Example 575, 8-Cyclopropylmethyl-2-(3,5-difluoro-phenylamino)-8H-pyrido[2,3-d]pyrimidin-7-one] |  | 
15 | 6.52 | 5.70 | 6.74 | 6.60 | 6.18 | CCC(C)n1c(=O)ccc2cnc(Nc3cc(OC)cc(C(F)(F)F)c3)nc21 (centres unmarked) [Example 463, 8-sec-Butyl-2-(3-methoxy-5-trifluoromethyl-phenylamino)-8H-pyrido[2,3-d]pyrimidin-7-one] |  | 
16 | 6.66 | 6.80 | 7.22 | 7.16 | 7.00 | Cc1ccc(Nc2ncc3ccc(=O)n(C4CCCC4)c3n2)cc1NS(C)(=O)=O [Example 555, N-[5-(8-Cyclopentyl-7-oxo-7,8-dihydro-pyrido[2,3-d]pyrimidin-2-ylamino)-2-methyl-phenyl]-methanesulfonamide] |  | 
17 | 6.69 | 6.35 | 7.22 | 6.32 | 6.91 | CCCCn1c(=O)ccc2cnc(Nc3ccc(OC)c(Cl)c3)nc21 [Example 365, 8-Butyl-2-(3-chloro-4-methoxy-phenylamino)-8H-pyrido[2,3-d]pyrimidin-7-one] |  | 
18 | 6.94 | 7.01 | 7.04 | 5.95 | 7.59 | CCCCn1c(=O)ccc2cnc(Nc3cc(Cl)c(O)c(Cl)c3)nc21 [Example 384, 8-Butyl-2-(3,5-dichloro-4-hydroxy-phenylamino)-8H-pyrido[2,3-d]pyrimidin-7-one] |  | 
19 | 7.00 | 6.54 | 7.57 | 5.92 | 6.96 | CCC(CC)n1c(=O)ccc2cnc(Nc3ccc4c(c3)CCC4)nc21 [Example 525, 8-(I-Ethyl-propyl)-2-(indan-5-ylamino)-8H-pyrido[2,3-d]pyrimidin-7-one] |  | 
20 | 7.23 | 7.08 | 7.49 | 6.55 | 7.59 | CCCCn1c(=O)ccc2cnc(Nc3ccc4[nH]nnc4c3)nc21 [Example 380, 2-(1H-Benzotriazol-5-ylamino)-8-butyl-8H-pyrido[2,3-d]pyrimidin-7-one] |  | 
21 | 7.34 | 6.94 | 7.90 | 6.72 | 7.33 | CCC(CC)n1c(=O)ccc2cnc(Nc3ccc(OC)c(OC)c3)nc21 [Example 499, 2-(3,4-Dimethoxy-phenylamino)-8-(1-ethyl-propyl)-8H-pyrido[2,3-d]pyrimidin-7-one] |  | 
22 | 7.73 | 7.50 | 7.71 | 7.60 | 7.85 | O=c1ccc2cnc(Nc3ccc4[nH]ncc4c3)nc2n1C1CCCC1 [Example 536, 8-Cyclopentyl-2-(1H-indazol-5-ylamino)-8H-pyrido[2,3-d]pyrimidin-7-one] |  | 
